In ChEMBL document CHEMBL1201862, “PubChem BioAssay data set” (2004):
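How tested: cells in 96-well plates exposed to compound for 48 hours at five concentrations. Here, GI50 denotes the concentration required for 50% inhibition of growth.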 The source made the active and inactive calls. Cut-off read from the data, not from the text of the source: active = GI50 up to about 1.1 µM and inactive = higher.

Experiments:
Test in all cases: NCI-60 cell line screen, 48 h
IGROV-1 = tested on: IGROV-1
SK-MEL-2 = tested on: SK-MEL-2
HOP-62 = tested on: HOP-62
OVCAR-8 = tested on: OVCAR-8
U-251 = tested on: U-251
A549 = tested on: A549
SK-OV-3 = tested on: SK-OV-3
SF-539 = tested on: SF-539
786-0 = tested on: 786-0
HOP-92 = tested on: HOP-92
SNB-75 = tested on: SNB-75
NCI-H23 = tested on: NCI-H23
K562 = tested on: K562
Malme-3M = tested on: Malme-3M
COLO 205 = tested on: COLO 205
UACC-62 = tested on: UACC-62
HL-60 = tested on: HL-60
SN12C = tested on: SN12C
NCI-H226 = tested on: NCI-H226
SF-268 = tested on: SF-268

COC(=O)CCC(=O)c1ccc2c(c1)CC1(C2)Cc2ccc(C(=O)CCC(=O)OC)cc2C1
GI50 (IGROV-1): > 100 µM (inactive) | GI50 (SK-MEL-2): 0.61 µM (active) | GI50 (HOP-62): 43.5 µM (inactive) | GI50 (OVCAR-8): 73.6 µM (inactive) | GI50 (U-251): 36.4 µM (inactive) | GI50 (A549): > 100 µM (inactive) | GI50 (SK-OV-3): 67 µM (inactive) | GI50 (SF-539): 67.5 µM (inactive) | GI50 (786-0): 30.8 µM (inactive) | GI50 (HOP-92): > 100 µM (inactive) | GI50 (SNB-75): < 0.01 µM (active) | GI50 (NCI-H23): 59.7 µM (inactive) | GI50 (K562): 29.9 µM (inactive) | GI50 (Malme-3M): > 100 µM (inactive) | GI50 (COLO 205): 94.4 µM (inactive) | GI50 (UACC-62): > 100 µM (inactive) | GI50 (HL-60): 56.2 µM (inactive) | GI50 (SN12C): > 100 µM (inactive)

COC1OC(C)C(OCc2ccccc2)C(OS(=O)(=O)c2ccc(C)cc2)C1OS(=O)(=O)c1ccc(C)cc1 (stereo not drawn)
GI50 (IGROV-1): > 100 µM (inactive) | GI50 (NCI-H226): > 100 µM (inactive) | GI50 (SK-MEL-2): > 100 µM (inactive) | GI50 (HOP-62): > 100 µM (inactive) | GI50 (OVCAR-8): > 100 µM (inactive) | GI50 (U-251): > 100 µM (inactive) | GI50 (A549): > 100 µM (inactive) | GI50 (SK-OV-3): > 100 µM (inactive) | GI50 (SF-539): > 100 µM (inactive) | GI50 (786-0): > 100 µM (inactive) | GI50 (SF-268): > 100 µM (inactive) | GI50 (SNB-75): > 100 µM (inactive) | GI50 (NCI-H23): > 100 µM (inactive) | GI50 (K562): > 100 µM (inactive) | GI50 (Malme-3M): > 100 µM (inactive) | GI50 (COLO 205): > 100 µM (inactive) | GI50 (HL-60): > 100 µM (inactive) | GI50 (SN12C): > 100 µM (inactive)

CCOC(=O)c1c(NC(=O)c2ccccc2)sc2c1CCCC2
GI50 (IGROV-1): > 100 µM (inactive) | GI50 (NCI-H226): > 100 µM (inactive) | GI50 (SK-MEL-2): > 100 µM (inactive) | GI50 (OVCAR-8): > 100 µM (inactive) | GI50 (U-251): > 100 µM (inactive) | GI50 (SK-OV-3): > 100 µM (inactive) | GI50 (SF-539): > 100 µM (inactive) | GI50 (786-0): > 100 µM (inactive) | GI50 (SF-268): > 100 µM (inactive) | GI50 (SNB-75): 7.23 µM (inactive) | GI50 (NCI-H23): > 100 µM (inactive) | GI50 (K562): > 100 µM (inactive) | GI50 (Malme-3M): 78.9 µM (inactive) | GI50 (COLO 205): > 100 µM (inactive) | GI50 (UACC-62): > 100 µM (inactive) | GI50 (HL-60): > 100 µM (inactive) | GI50 (SN12C): > 100 µM (inactive)

CCCCOC(=O)NC(=O)c1cn(CCCOC(=O)NCCCCCCNC(=O)OCCCn2cc(C(=O)NC(=O)OCCCC)c(=O)[nH]c2=O)c(=O)[nH]c1=O
GI50 (IGROV-1): > 100 µM (inactive) | GI50 (SK-MEL-2): > 100 µM (inactive) | GI50 (HOP-62): > 100 µM (inactive) | GI50 (OVCAR-8): > 100 µM (inactive) | GI50 (U-251): > 100 µM (inactive) | GI50 (A549): > 100 µM (inactive) | GI50 (SK-OV-3): > 100 µM (inactive) | GI50 (SF-539): > 100 µM (inactive) | GI50 (786-0): > 100 µM (inactive) | GI50 (HOP-92): 23.6 µM (inactive) | GI50 (SF-268): > 100 µM (inactive) | GI50 (SNB-75): > 100 µM (inactive) | GI50 (NCI-H23): 44.6 µM (inactive) | GI50 (K562): > 100 µM (inactive) | GI50 (Malme-3M): > 100 µM (inactive) | GI50 (COLO 205): > 100 µM (inactive) | GI50 (UACC-62): > 100 µM (inactive) | GI50 (HL-60): > 100 µM (inactive) | GI50 (SN12C): > 100 µM (inactive)

Cc1cc(C)n(-c2nc3ccccc3c(=O)[nH]2)n1
GI50 (IGROV-1): 1.5 µM (inactive) | GI50 (SK-MEL-2): 8.47 µM (inactive) | GI50 (HOP-62): 2.29 µM (inactive) | GI50 (OVCAR-8): 0.863 µM (active) | GI50 (U-251): 3.24 µM (inactive) | GI50 (A549): 2.95 µM (inactive) | GI50 (SK-OV-3): 8.65 µM (inactive) | GI50 (SF-539): 4.4 µM (inactive) | GI50 (786-0): 2.24 µM (inactive) | GI50 (HOP-92): 21.7 µM (inactive) | GI50 (SF-268): 4.1 µM (inactive) | GI50 (SNB-75): 14.1 µM (inactive) | GI50 (NCI-H23): 7.96 µM (inactive) | GI50 (K562): 1.64 µM (inactive) | GI50 (COLO 205): 2.43 µM (inactive) | GI50 (UACC-62): 2.78 µM (inactive) | GI50 (HL-60): 1.32 µM (inactive) | GI50 (SN12C): 4.34 µM (inactive)

NC(=O)N/N=C(/Cc1nc2ccc(C(=O)c3ccccc3)cc2nc1O)C(=O)Nc1ccc(C(F)(F)F)cc1[N+](=O)[O-]
GI50 (IGROV-1): > 100 µM (inactive) | GI50 (SK-MEL-2): > 100 µM (inactive) | GI50 (HOP-62): > 100 µM (inactive) | GI50 (OVCAR-8): 77.8 µM (inactive) | GI50 (U-251): 75 µM (inactive) | GI50 (A549): > 100 µM (inactive) | GI50 (SK-OV-3): 84.1 µM (inactive) | GI50 (SF-539): 66.5 µM (inactive) | GI50 (786-0): > 100 µM (inactive) | GI50 (HOP-92): 45.7 µM (inactive) | GI50 (SF-268): > 100 µM (inactive) | GI50 (SNB-75): 26 µM (inactive) | GI50 (NCI-H23): 84.7 µM (inactive) | GI50 (K562): 39.6 µM (inactive) | GI50 (Malme-3M): > 100 µM (inactive) | GI50 (COLO 205): 25.5 µM (inactive) | GI50 (UACC-62): 38.7 µM (inactive) | GI50 (HL-60): 42.1 µM (inactive) | GI50 (SN12C): > 100 µM (inactive)

O=C(Nc1ccc(Br)c2ccccc12)c1ccc2ccccc2c1O
GI50 (IGROV-1): 2.9 µM (inactive) | GI50 (NCI-H226): 1.87 µM (inactive) | GI50 (SK-MEL-2): 0.597 µM (active) | GI50 (HOP-62): 2.32 µM (inactive) | GI50 (OVCAR-8): 3.86 µM (inactive) | GI50 (U-251): 1.73 µM (inactive) | GI50 (A549): 1.77 µM (inactive) | GI50 (SK-OV-3): 2.75 µM (inactive) | GI50 (SF-539): 5.16 µM (inactive) | GI50 (786-0): 3.94 µM (inactive) | GI50 (SF-268): 3.87 µM (inactive) | GI50 (SNB-75): 2.3 µM (inactive) | GI50 (NCI-H23): 1.9 µM (inactive) | GI50 (K562): 2.55 µM (inactive) | GI50 (Malme-3M): 1.36 µM (inactive) | GI50 (COLO 205): 2.11 µM (inactive) | GI50 (UACC-62): 1.82 µM (inactive) | GI50 (HL-60): 3.64 µM (inactive) | GI50 (SN12C): 3.39 µM (inactive)
